Measured values taken from patent publication US20130184273A1, “BICYCLIC PYRIMIDINES” (Bayer Intellectual Property GmbH, priority 2010, published 2013).

Tests used:
[1] = target: T1, His-tagged human recombinant kinase full-length Akt1 (Homo sapiens, UniProt P31749); test: Akt1 kinase assay (TR-FRET); type: biochemical; details: 10 μM ATP, 60 min at 22° C., read-out: Akt1, median IC50
T1 construct: His-tagged human recombinant kinase full-length Akt1; His; purchased Invitrogen PV 3599; host or cells: insect cells
Excerpt: Akt1 inhibitory activity of compounds of the present invention was quantified employing the Akt1 TR-FRET assay as described in the following paragraphs.
(§1) His-tagged human recombinant kinase full-length Akt1 expressed in insect cells was purchased form Invitrogen (part number PV 3599). As substrate for the kinase reaction the biotinylated peptide biotin-Ahx-KKLNRTLSFAEPG (C-terminus in amide form) was used which can be purchased e.g. from the company Biosynthan GmbH (Berlin-Buch, Germany).
(§2) For the assay 50 nl of a 100 fold concentrated solution of the test compound in DMSO was pipetted into a black low volume 384well microtiter plate (Greiner Bio-One, Frickenhausen, Germany), 2 μl of a solution of Akt1 in assay buffer [50 mM TRIS/HCl pH 7.5, 5 mM MgCl2, 1 mM dithiothreitol, 0.02% (v/v) Triton X-100 (Sigma)] were added and the mixture was incubated for 15 min at 22° C. to allow pre-binding of the test compounds to the enzyme before the start of the kinase reaction. Then the kinase reaction was started by the addition of 3 μl of a solution of adenosine-tri-phosphate (ATP, 16.7 μM=>final conc. in the 5 μl assay volume is 10 μM) and substrate (1.67 μM=>final conc. in the 5 μl assay volume is 1 μM) in assay buffer and the resulting mixture was incubated for a reaction time of 60 min at 22° C. The concentration of Akt1 in the assay was adjusted depending of the activity of the enzyme lot and was chosen appropriate to have the assay in the linear range, typical enzyme concentrations were in the range of about 0.05 ng/μl (final conc. in the 5 μl assay volume).
The reaction was stopped by the addition of 5 μl of a solution of HTRF detection reagents (200 nM streptavidine-XL665 [Cisbio] and 1.5 nM anti-phosho-Serine antibody [Millipore, cat. #35-001] and 0.75 nM LANCE Eu-W 1024 labeled anti-mouse IgG antibody [Perkin Elmer]) in an aqueous EDTA-solution (100 mM EDTA, 0.1% (w/v) bovine serum albumin in 50 mM HEPES/NaOH pH 7.5). The resulting mixture was incubated 1 h at 22° C. to allow the binding of the biotinylated phosphorylated peptide to the streptavidine-XL665 and the antibodies. Subsequently the amount of phosphorylated substrate was evaluated by measurement of the resonance energy transfer from the anti-mouse-IgG-Eu-Chelate to the streptavidine-XL665. Therefore, the fluorescence emissions at 620 nm and 665 nm after excitation at 350 nm was measured in a HTRF reader, e.g. a Rubystar (BMG Labtechnologies, Offenburg, Germany) or a Viewlux (Perkin-Elmer). The ratio of the emissions at 665 nm and at […] was taken as the measure for the amount of phosphorylated substrate. The data were normalised (enzyme reaction without inhibitor=0% inhibition, all other assay components but no enzyme=100% inhibition).

[2] = target: T2, His-tagged human recombinant kinase full-length Akt2 (Homo sapiens, UniProt P31751); test: Akt2 kinase assay (TR-FRET); type: biochemical; details: 10 μM ATP, 60 min at 22° C., read-out: Akt2, median IC50
T2 construct: His-tagged human recombinant kinase full-length Akt2; His; purchased Invitrogen PV 3975; host or cells: insect cells
Excerpt: Akt2 inhibitory activity of compounds of the present invention was quantified employing the Akt2 TR-FRET assay as described in the following paragraphs.
as §1, with “Akt2” for “Akt1”, “cells and activated by PDK1” for “cells”, “3975).” for “3599).”
as §2, with “Akt2” for “Akt1”, “0.2” for “0.05”
The reaction was stopped by the addition of 5 μl of a solution of HTRF detection reagents (200 nM streptavidine-XL665 [Cisbio] and 1.5 nM anti-phosho-Serine antibody [Millipore, cat. #35-001] and 0.75 nM LANCE Eu-W 1024 labeled anti-mouse IgG antibody [Perkin Elmer]) in an aqueous EDTA-solution (100 mM EDTA, 0.1% (w/v) bovine serum albumin in 50 mM HEPES/NaOH pH 7.5).
The resulting mixture was incubated 1 h at 22° C. to allow the binding of the biotinylated phosphorylated peptide to the streptavidine-XL665 and the antibodies.
Subsequently the amount of phosphorylated substrate was evaluated by measurement of the resonance energy transfer from the anti-mouse-IgG-Eu-Chelate to the streptavidine-XL665. Therefore, the fluorescence emissions at 620 nm and 665 nm after excitation at 350 nm was measured in a TR-FRET reader, e.g. a Rubystar (BMG Labtechnologies, Offenburg, Germany) or a Viewlux (Perkin-Elmer). The ratio of the emissions at 665 nm and at […] was taken as the measure for the amount of phosphorylated substrate. The data were normalised (enzyme reaction without inhibitor=0% inhibition, all other assay components but no enzyme=100% inhibition).

T1 sequence (P31749 whole entry): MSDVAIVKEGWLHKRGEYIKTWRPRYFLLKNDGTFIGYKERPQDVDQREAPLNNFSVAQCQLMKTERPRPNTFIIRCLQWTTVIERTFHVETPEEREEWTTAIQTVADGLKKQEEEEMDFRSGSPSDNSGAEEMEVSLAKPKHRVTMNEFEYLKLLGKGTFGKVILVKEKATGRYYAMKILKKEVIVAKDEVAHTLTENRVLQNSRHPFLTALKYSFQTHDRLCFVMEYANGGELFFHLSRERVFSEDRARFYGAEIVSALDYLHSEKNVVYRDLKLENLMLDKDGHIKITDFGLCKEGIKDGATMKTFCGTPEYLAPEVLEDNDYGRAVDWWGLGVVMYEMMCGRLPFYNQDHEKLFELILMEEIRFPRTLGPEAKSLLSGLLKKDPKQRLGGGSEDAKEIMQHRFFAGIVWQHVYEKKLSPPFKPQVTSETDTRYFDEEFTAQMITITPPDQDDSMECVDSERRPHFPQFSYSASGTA
T2 sequence (P31751 whole entry): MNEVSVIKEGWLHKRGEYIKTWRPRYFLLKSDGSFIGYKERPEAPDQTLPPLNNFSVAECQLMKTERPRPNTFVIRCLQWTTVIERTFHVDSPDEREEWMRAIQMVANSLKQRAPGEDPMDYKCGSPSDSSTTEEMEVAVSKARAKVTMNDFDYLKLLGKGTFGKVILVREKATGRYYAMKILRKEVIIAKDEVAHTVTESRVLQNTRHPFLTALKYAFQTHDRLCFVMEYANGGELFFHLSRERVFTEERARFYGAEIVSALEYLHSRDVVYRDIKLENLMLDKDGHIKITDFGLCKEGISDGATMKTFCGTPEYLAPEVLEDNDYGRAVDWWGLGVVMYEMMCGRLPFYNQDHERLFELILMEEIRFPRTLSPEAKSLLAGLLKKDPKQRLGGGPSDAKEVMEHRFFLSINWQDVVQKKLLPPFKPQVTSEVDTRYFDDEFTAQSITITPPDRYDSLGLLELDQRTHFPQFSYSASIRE

Compound | IC50 [1] | IC50 [2]
Cc1nc2nc(-c3ccc(C4(N)CC4)cc3)c(-c3ccccc3)cn2n1 [Example 1-2, 1-[4-(2-methyl-6-phenyl-[1,2,4]triazolo[1,5-a]pyrimidin-5-yl)-phenyl]-cyclopropylamine] | 3.01 µM | 2.22 µM
NC1(c2ccc(-c3nc4nc(-c5ccccn5)nn4c(N4CCOCC4)c3-c3ccccc3)cc2)CCC1 [Example 3-2, 1-[4-(7-Morpholine-4-yl-6-phenyl-2-pyridine-2-yl-[1,2,4]triazolo[1,5-a]pyrimidin-5-yl)-phenyl]-cyclobutylamine] | ≥ 20 µM | 6.64 µM
CNc1c(-c2ccccc2)c(-c2ccc(C3(N)CCC3)cc2)nc2nc(C)nn12 [Example 5-13, {5-[4-(1-amino-cyclobutyl)-phenyl]-2-methyl-6-phenyl-[1,2,4]triazolo[1,5-a]pyrimidin-7-yl}-methyl-amine] | 2.24 µM | 2.24 µM
NC1(c2ccc(-c3nc4nc(NCc5ccncc5)nn4cc3-c3ccccc3)cc2)CCC1 [Example 5-6, {5-[4-(1-amino-cyclobutyl)-phenyl]-6-phenyl-[1,2,4]triazolo[1,5-a]pyrimidin-2-yl}-pyridin-4-ylmethyl-amine] | 5.65 µM | 2.55 µM
COCCNc1nc2nc(-c3ccc(C4(N)CCC4)cc3)c(-c3ccccc3)cn2n1 [Example 5-0, {5-[4-(1-Amino-cyclobutyl)-phenyl]-6-phenyl-[1,2,4]triazolo[1,5-a]pyrimidin-2-yl}-(2-methoxy-ethyl)-amine] | 1.83 µM | 0.877 µM
Cc1nc2nc(-c3ccc(C4(N)CCC4)cc3)c(-c3ccccc3)c(NCC3CC3)n2n1 [Example 5-9, {5-[4-(1-amino-cyclobutyl)-phenyl]-2-methyl-6-phenyl-[1,2,4]triazolo[1,5-a]pyrimidin-7-yl}-cyclopropylmethyl-amine] | 0.854 µM | 0.541 µM
CCNc1nc2nc(-c3ccc(C4(N)CCC4)cc3)c(-c3ccccc3)cn2n1 [Example 5-1, {5-[4-(1-amino-cyclobutyl)-phenyl]-6-phenyl-[1,2,4]triazolo[1,5-a]pyrimidin-2-yl}-ethyl-amine] | 0.958 µM | 0.502 µM
NC1(c2ccc(-c3nc4nccn4cc3-c3ccccc3)cc2)CCC1 [Example 2-0, 1-[4-(6-Phenyl-imidazo[1,2-a]pyrimidin-7-yl)-phenyl]-cyclobutylamine] | 2.22 µM | 1.64 µM
Cc1nc2nc(-c3ccc(C4(N)CCCC4)cc3)c(-c3ccccc3)cn2n1 [Example 1-1, 1-[4-(2-methyl-6-phenyl-[1,2,4]triazolo[1,5-a]pyrimidin-5-yl)-phenyl]-cyclopentylamine] | 2.57 µM | 3.26 µM
CCNc1c(-c2ccccc2)c(-c2ccc(C3(N)CCC3)cc2)nc2nc(C)nn12 [Example 5-11, {5-[4-(1-amino-cyclobutyl)-phenyl]-2-methyl-6-phenyl-[1,2,4]triazolo[1,5-a]pyrimidin-7-yl}-ethyl-amine] | 1.73 µM | 1.12 µM
COC[C@H](C)Nc1c(-c2ccccc2)c(-c2ccc(C3(N)CCC3)cc2)nc2nccn12 [Example 2-4, {7-[4-(1-Amino-cyclobutyl)-phenyl]-6-phenyl-imidazo[1,2-a]pyrimidin-5-yl}-((S)-2-methoxy-1-methyl-ethyl)-amine] | 10.6 µM | 1.27 µM
NC1(c2ccc(-c3nc4nccn4c(NC4CC4)c3-c3ccccc3)cc2)CCC1 [Example 2-2, {7-[4-(1-Amino-cyclobutyl)-phenyl]-6-phenyl-imidazo[1,2-a]pyrimidin-5-yl)-cyclopropylamine] | 2.05 µM | 1.58 µM
NC1(c2ccc(-c3nc4nc(C5CC5)nn4c(N[C@H]4CC[C@H](O)CC4)c3-c3ccccc3)cc2)CCC1 [Example 5-15, 4-{5-[4-(1-amino-cyclobutyl)-phenyl]-2-cyclopropyl-6-phenyl-[1,2,4]triazolo[1,5-a]pyrimidin-7-ylamino}-cyclohexanol] | 11.6 µM | 0.936 µM

The remaining molecules from weak to strong by IC50 [1], led by results:

IC50 [1] | IC50 [2] | Compound
18.2 µM | 9.35 µM | COCCCNc1c(-c2ccccc2)c(-c2ccc(C3(N)CCC3)cc2)nc2nc(C)nn12 [Example 3-4, {5-[4-(1-Amino-cyclobutyl)-phenyl]-2-methyl-6-phenyl-[1,2,4]triazolo[1,5-a]pyrimidin-7-yl}-(3-methoxy-propyl)-amine]
13.1 µM | 7.47 µM | NC1(c2ccc(-c3nc4nccn4c(N4CCOCC4)c3-c3ccccc3)cc2)CCC1 [Example 2-3, 1-[4-(5-Morpholino-4-yl-6-phenyl-imidazo[1,2-a]pyrimidin-7-yl)phenyl]-cyclobutylamine]
13 µM | 2.86 µM | COC[C@H](C)Nc1c(-c2ccccc2)c(-c2ccc(C3(N)CCC3)cc2)nc2nc(C)cn12 [Example 2-6, {7-[4-(1-Amino-cyclobutyl)-phenyl]-2-methyl-6-phenyl-imidazo[1,2-a]pyrimidin-5-yl}-((S)-2-methoxy-1-methyl-ethyl)-amine]
0.93 µM | 0.982 µM | CNc1c(-c2ccccc2)c(-c2ccc(C3(N)CCC3)cc2)nc2nc(C3CC3)nn12 [Example 5-10, {5-[4-(1-amino-cyclobutyl)-phenyl]-2-cyclopropyl-6-phenyl-[1,2,4]triazolo[1,5-a]pyrimidin-7-yl}-methyl-amine]
0.672 µM | 0.549 µM | Cc1nc2nc(-c3ccc(C4(N)CCC4)cc3)c(-c3ccccc3)c(NC(C)C)n2n1 [Example 5-7, {5-[4-(1-amino-cyclobutyl)-phenyl]-2-methyl-6-phenyl-[1,2,4]triazolo[1,5-a]pyrimidin-7-yl}-isopropyl-amine]
0.526 µM | 1.02 µM | Cc1nc2nc(-c3ccc(C4(N)CCC4)cc3)c(-c3ccccc3)c(C)n2n1 [Example 1-3, 1-[4-(2,7-dimethyl-6-phenyl-[1,2,4]triazolo[1,5-a]pyrimidin-5-yl)-phenyl]-cyclobutylamine]
